# Measurements from US4957923A, “Diuretic or antihypertensive composition” (Fujisawa Pharmaceutical Co., Ltd., priority 1988, dated 1990).
# Tests used:
# Female SD rats = test: Diuretic action (rats); assay type: in vivo, rat (SD); conditions: mean ± S.E.
# Method: Female SD rats aged 6 weeks (9 rats per dosage) were used. After an 18-hour fast, the rats were dosed with the test drug and, at the same time, orally loaded with 20 ml/kg of physiological saline. The rats were then placed in metabolism cages, 3 animals per cage, and the 0-6 hour and 6-24 hour urines were collected. Meanwhile, the animals were additionally loaded with 25 ml/kg of physiological saline immediately after collection of the 0-6 hour urine. Na^+ in urine was determined with STAT/ION II (Technicon).
# The results were respectively converted to the amounts of excretion per kg rat body weight, which were then tabulated as the mean±S.E. for each dose level.
# The drug was suspended in 0.5% methylcellulose at necessary concentrations and 5 ml/kg of each suspension was orally administered. The control group similarly received 0.5% methylcellulose only.
# DOCA hypertensive rats = test: Antihypertension action (DOCA hypertensive rats); assay type: in vivo, rat (Wistar)
# Method: Male Wistar rats, 10 weeks old, were subjected to left nephrectomy and 2 to 4 days after operation, deoxycorticosterone acetate was administered subcutaneously in a dose of 30 mg/ml/kg twice a week. The animals were given 1% saline for drinking water and the individuals showing a mean blood pressure of ≥150 mmHg at 15 weeks of age were submitted to the experiment. After catheterization, saline for drinking water was replaced with tap water. At the beginning of the experiment, the test rats had mean blood pressures from 152 to 204 mmHg, heart rates from 354 to 462 beats/min. and body weights from 232 to 318 g. 3~5 Animals per group were used.
# 3 Or 4 days before the beginning of the experiment, one end of a catheter for blood pressure measurement was passed from the femoral artery to the abdominal aorta of each rat and the other end was passed beneath the skin and fixed in exposed position in the dorsocervical region. The drug was orally administered once a day for 5 consecutive days. The rats had been deprived of food for about 3 hours before drug administration. The blood pressure was measured before administration and 5 hours after administration of days 1, 3 and 5. At each blood pressure measurement, the mean blood pressure was observed via a pressure transducer connected to the dorsocervical end of the catheter for blood pressure measurement and the stabilized mean blood pressure was recorded.
# Drug was suspended and diluted using a 0.5% solution of methylcellulose and 5ml/kg of the suspension was orally administered.
# Female beagle dogs = test: Diuretic action (beagle dogs); assay type: in vivo, dog (beagle); conditions: 100 mg/kg p.o., interval not given, mean ± S.E.
# Method: Female beagle dogs weighing 8 to 10 kg were used (6 dogs per group). After an 18-hour fast, the animals were orally dosed with 5 ml/kg of suspensions of the drug in 0.5% methylcellulose and, at the same time, orally loaded with 15 ml/kg of physiological saline and the 0-6 hr and 6-24 hr urines were collected. Meanwhile, the dogs were additionally loaded with 20 ml/kg of physiological saline immediately after collection of the 0-6 hr urine. Na^+ in urine was determined with STAT/ION (Technicone).
# The results were respectively converted to the amounts of excretion per kg body weight, which were then tabulated as the mean±S.E. for each dose level. The control group similarly received 0.5% methylcellulose instead of the drug.
# [1] = 3.2 mg/kg p.o. once a day, Day 1 after 5 hr
# [2] = 3.2 mg/kg p.o. once a day, Day 1 before administration (baseline)
# [3] = 3.2 mg/kg p.o. once a day, Day 3 after 5 hr
# [4] = 3.2 mg/kg p.o. once a day, Day 3 before administration
# [5] = 3.2 mg/kg p.o. once a day, Day 5 after 5 hr
# [6] = 3.2 mg/kg p.o. once a day, Day 5 before administration
# [7] = 10 mg/kg p.o. once a day, Day 1 after 5 hr
# [8] = 10 mg/kg p.o. once a day, Day 1 before administration (baseline)
# [9] = 10 mg/kg p.o. once a day, Day 3 after 5 hr
# [10] = 10 mg/kg p.o. once a day, Day 3 before administration
# [11] = 10 mg/kg p.o. once a day, Day 5 after 5 hr
# [12] = 10 mg/kg p.o. once a day, Day 5 before administration
# [13] = 100 mg/kg p.o. once a day, Day 1 after 5 hr
# [14] = 100 mg/kg p.o. once a day, Day 1 before administration (baseline)
# [15] = 100 mg/kg p.o. once a day, Day 3 after 5 hr
# [16] = 100 mg/kg p.o. once a day, Day 3 before administration
# [17] = 100 mg/kg p.o. once a day, Day 5 after 5 hr
# [18] = 100 mg/kg p.o. once a day, Day 5 before administration
smiles,measurement,setting,value
"O=C(O)Cn1c(=O)n(Cc2ccc(Br)cc2F)c(=O)c2ccc(F)cc21 [Compound B, 2-[7-Fluoro-3-(4-bromo-2-fluorobenzyl)-1,2,3,4-tetrahydro-2,4-dioxoquinazolin-1-yl]acetic acid]",Urine volume,"Female SD rats; 100 mg/kg p.o., 0-6 hr, control 13.2 ± 2.0",30.1 ± 1.5 mL/kg
same,Na^+ (urine),"Female SD rats; 100 mg/kg p.o., 0-6 hr, control 1460 ± 173",2416 ± 101 μEq/kg
same,Urine volume,"Female SD rats; 100 mg/kg p.o., 6-24 hr, control 26.59 ± 2.24",33.69 ± 0.55 mL/kg
same,Na^+ (urine),"Female SD rats; 100 mg/kg p.o., 6-24 hr, control 3830 ± 463",3940 ± 295 μEq/kg
same,Urine volume,"Female SD rats; 100 mg/kg p.o., total 0-24 hr, control 39.78 ± 4.26",63.75 ± 1.19 mL/kg
same,Na^+ (urine),"Female SD rats; 100 mg/kg p.o., total 0-24 hr, control 5289 ± 636",6356 ± 311 μEq/kg
same,Urine volume,"Female SD rats; 320 mg/kg p.o., 0-6 hr, control 13.2 ± 2.0",37.9 ± 1.5 mL/kg
same,Na^+ (urine),"Female SD rats; 320 mg/kg p.o., 0-6 hr, control 1460 ± 173",3021 ± 440 μEq/kg
same,Urine volume,"Female SD rats; 320 mg/kg p.o., 6-24 hr, control 26.59 ± 2.24",61.22 ± 6.20 mL/kg
same,Na^+ (urine),"Female SD rats; 320 mg/kg p.o., 6-24 hr, control 3830 ± 463",5861 ± 194 μEq/kg
same,Urine volume,"Female SD rats; 320 mg/kg p.o., total 0-24 hr, control 39.78 ± 4.26",99.10 ± 6.64 mL/kg
same,Na^+ (urine),"Female SD rats; 320 mg/kg p.o., total 0-24 hr, control 5289 ± 636",8882 ± 630 μEq/kg
same,Mean blood pressure,DOCA hypertensive rats; [1],176 mm Hg
same,Percentage of change (mean blood pressure),DOCA hypertensive rats; [1],-8.9%
same,Mean blood pressure,DOCA hypertensive rats; [2],193 mm Hg
same,Percentage of change (mean blood pressure),DOCA hypertensive rats; [2],0.0%
same,Mean blood pressure,DOCA hypertensive rats; [3],160 mm Hg
same,Percentage of change (mean blood pressure),DOCA hypertensive rats; [3],-17.1%
same,Mean blood pressure,DOCA hypertensive rats; [4],175 mm Hg
same,Percentage of change (mean blood pressure),DOCA hypertensive rats; [4],-9.3%
same,Mean blood pressure,DOCA hypertensive rats; [5],161 mm Hg
same,Percentage of change (mean blood pressure),DOCA hypertensive rats; [5],-16.7%
same,Mean blood pressure,DOCA hypertensive rats; [6],167 mm Hg
same,Percentage of change (mean blood pressure),DOCA hypertensive rats; [6],-13.5%
same,Mean blood pressure,DOCA hypertensive rats; [7],148 mm Hg
same,Percentage of change (mean blood pressure),DOCA hypertensive rats; [7],-17.5%
same,Mean blood pressure,DOCA hypertensive rats; [8],180 mm Hg
same,Percentage of change (mean blood pressure),DOCA hypertensive rats; [8],0.0%
same,Mean blood pressure,DOCA hypertensive rats; [9],132 mm Hg
same,Percentage of change (mean blood pressure),DOCA hypertensive rats; [9],-26.1%
same,Mean blood pressure,DOCA hypertensive rats; [10],137 mm Hg
same,Percentage of change (mean blood pressure),DOCA hypertensive rats; [10],-23.3%
same,Mean blood pressure,DOCA hypertensive rats; [11],143 mm Hg
same,Percentage of change (mean blood pressure),DOCA hypertensive rats; [11],-20.0%
same,Mean blood pressure,DOCA hypertensive rats; [12],139 mm Hg
same,Percentage of change (mean blood pressure),DOCA hypertensive rats; [12],-22.5%
same,Mean blood pressure,DOCA hypertensive rats; [13],151 mm Hg
same,Percentage of change (mean blood pressure),DOCA hypertensive rats; [13],-14.5%
same,Mean blood pressure,DOCA hypertensive rats; [14],176 mm Hg
same,Percentage of change (mean blood pressure),DOCA hypertensive rats; [14],0.0%
same,Mean blood pressure,DOCA hypertensive rats; [15],130 mm Hg
same,Percentage of change (mean blood pressure),DOCA hypertensive rats; [15],-26.2%
same,Mean blood pressure,DOCA hypertensive rats; [16],144 mm Hg
same,Percentage of change (mean blood pressure),DOCA hypertensive rats; [16],-18.4%
same,Mean blood pressure,DOCA hypertensive rats; [17],135 mm Hg
same,Percentage of change (mean blood pressure),DOCA hypertensive rats; [17],-23.6%
same,Mean blood pressure,DOCA hypertensive rats; [18],138 mm Hg
same,Percentage of change (mean blood pressure),DOCA hypertensive rats; [18],-22.3%
same,Urine volume,Female beagle dogs; control 5.8 ± 1.4,13.3 ± 2.6 mL/kg
same,Na^+ (urine),Female beagle dogs; control 544 ± 133,1068 ± 280 μEq/kg
